What all share (format): biochemical
Test [1] deals with T1, human arginase type I N130D-S137C-N139D (Homo sapiens, UniProt P05089, N130D/N139D/S137C).
T1 sequence (P05089 1-322 N130D/S137C/N139D): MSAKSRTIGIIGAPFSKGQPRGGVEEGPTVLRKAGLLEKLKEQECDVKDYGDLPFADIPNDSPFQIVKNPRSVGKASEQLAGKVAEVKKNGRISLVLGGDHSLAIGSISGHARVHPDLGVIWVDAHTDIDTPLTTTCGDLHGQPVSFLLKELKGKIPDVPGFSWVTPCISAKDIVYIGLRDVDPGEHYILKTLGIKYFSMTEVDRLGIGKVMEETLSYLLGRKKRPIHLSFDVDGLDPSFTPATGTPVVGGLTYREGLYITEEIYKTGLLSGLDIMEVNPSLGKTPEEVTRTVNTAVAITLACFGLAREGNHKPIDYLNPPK
The test can be described thus: Kinetic and inhibition studies, triple mutant. As to the method:
(§1) Bacterial cultures were grown with shaking at 37 °C in Luria Broth media, in the presence of ampicillin (100 μg/mL). The wild-type and mutant human liver arginase cDNAs were directionally cloned into the pBluescript II KS(+) expression vector and then expressed in E. coli JM109, following induction with 1 mM isopropyl β-D-thiogalactopyranoside. The bacterial cells were disrupted by sonication on ice (5 × 30 s pulses), centrifuged for 20 min at 12,000× g, and the obtained supernatant was precipitated with ammonium sulfate (60% saturation). The pellet, collected by centrifugation at 12,000× g for 10 min, was re-suspended in buffer 5 mM Tris–HCl (pH 7.5) containing 2 mM MnCl2 and dialyzed for 6 h at 4 °C against the same buffer. After incubation with 5 mM MnCl2 for 10 min at 60 °C, the enzyme variants were purified as previously described. The purity of the enzymes was evaluated by SDS–PAGE stained by Coomassie blue and immunodetection using an anti- rat arginase I antibody.
(§2) The single, double, triple, and chimera variants of human arginase type I were obtained by PCR, using the QuickChange site-directed mutagenesis kit (Stratagene, La Jolla, CA, USA); the plasmid pBluescript II KS(+) containing the human liver arginase cDNA was used as template. To obtain the chimeric species of human arginase type I, serial mutations were made in each loop to be modified, using as template DNA the wild-type arginase gene or the previous done mutation, subcloned in the plasmid pBluescript II KS (+). Specifically, the residues present in the arginase structure were replaced by those corresponding to the agmatinase sequence of E. coli.
(§3) All assays were initiated by adding the enzyme to a previously equilibrated buffer with the substrate in solution (the concentrations of used substrates were between 0.2–3 fold the Km). Urea was determined by a colorimetric method with α-isonitrosopropiophenone. The protein concentrations were determined by the Bradford’s method, with bovine serum albumin as standard. […]

Test [2] deals with T2, human arginase type I S137C-N139D (Homo sapiens, UniProt P05089, N139D/S137C).
T2 construct: made in house; host or cells: E. coli JM109
T2 sequence (P05089 1-322 S137C/N139D): T1 sequence (P05089 1-322 N130D/S137C/N139D) with D130N
The test can be described thus: Kinetic and inhibition studies, S137C-N139D mutant. Here is the method: as §1, §2, §3

Test [3] addresses T3, Chimera A1 (I129T/N130Y/T131A) of human arginase type I (Homo sapiens, UniProt P05089, I129T/N130Y/T131A).
T3 sequence (P05089 1-322 I129T/N130Y/T131A): T1 sequence (P05089 1-322 N130D/S137C/N139D) with I129T, D130Y, T131A, C137S, D139N
The test is described as follows: Kinetic and inhibition studies, Chimera A1. Here is the method:
as §1, §2
(§4) All assays were initiated by adding the enzyme to a previously equilibrated buffer with the substrate in solution (the concentrations of used substrates were between 0.2–3 fold the Km). Urea was determined by a colorimetric method with α-isonitrosopropiophenone. The protein concentrations were determined by the Bradford’s method, with bovine serum albumin as standard. Initial velocity and enzymatic inhibition experiments were performed in duplicate and repeated three times. The inhibitory patterns were initially determined by double reciprocal plots and re-plots of intercepts and slopes versus inhibitor concentrations. […] Velocities are expressed as μmol of urea/10 min.

Test [4] addresses T4, Chimera A2 (I129T/N130Y/T131A+∆ P132-T134) of human arginase type I (Homo sapiens, UniProt P05089, DEL129-131/I129T/L133Y/N130Y/P132T/T134A).
T4 construct: made in house; host or cells: E. coli JM109
T4 sequence (P05089 with tags, fused parts or gaps DEL129-131/P132T/L133Y/T134A): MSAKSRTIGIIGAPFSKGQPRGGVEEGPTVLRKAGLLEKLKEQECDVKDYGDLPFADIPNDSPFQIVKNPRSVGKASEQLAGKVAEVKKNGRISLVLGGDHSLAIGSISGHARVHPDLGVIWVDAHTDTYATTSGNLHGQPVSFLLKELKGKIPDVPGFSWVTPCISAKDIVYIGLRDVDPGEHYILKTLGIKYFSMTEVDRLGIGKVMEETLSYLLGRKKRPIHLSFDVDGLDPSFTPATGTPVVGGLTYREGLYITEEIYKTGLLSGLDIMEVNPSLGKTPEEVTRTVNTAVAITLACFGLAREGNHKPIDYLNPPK
The test can be described thus: Kinetic and inhibition studies, Chimera A2. Here is the method:
as §1, §2, §4

Test [5] addresses T5, type I human arginase D181T (Homo sapiens, UniProt P05089, D181T).
T5 sequence (P05089 1-322 D181T): T1 sequence (P05089 1-322 N130D/S137C/N139D) with D130N, C137S, D139N, D181T
The test is described as follows: Kinetic and inhibition studies, D181T mutant. The note with it: substrate arginine. Here is the method: as §1, §2, §4

Setting [6] is: substrate = labelled compound, pH 9.5, 2 mM Mn2+.

Substitutions are numbered along the chain they refer to.

What is called Ki is the equilibrium dissociation constant of an inhibitor or competing ligand from its target. With `NCCC[C@H](N)C(=O)O` [Ornithine, L-ornithine], in test [1] (read-out: Ki^orn), the inhibition constant (Ki) was 5.4 mM. Moreover, the Ki in test [2] (read-out: Ki^orn) stood at 8.4 mM. In test [3] (substrate arginine), the “Inhibition type” value was “Competitive” and the “Kis (Ki)” value is listed as 60 ± 2 mM. In addition, the “Inhibition by ornithine compared with wild-type arginase” value in test [4] (pH 9.5, 37 °C, substrate 5 mM, Figure 4A) is recorded as “much more insensitive to inhibition by ornithine than the wild-type arginase”. Besides, in test [5], the Inhibition type entry is listed as “Competitive” and the Kis came to 1.6 ± 0.3 mM.

By kcat is commonly meant the maximal rate divided by the concentration of active sites. In general, Km refers to the substrate concentration at which the rate is half of its maximum. In the case of `N=C(N)NCCC[C@H](N)C(=O)O` [Arginine, L-arginine], the kcat in test [1] (substrate = labelled compound) turned out to be 4 s⁻¹; in test [2] (substrate = labelled compound) it was 83 s⁻¹; in test [3] (substrate = labelled compound, n/a = no activity with the substrate), 6.2 ± 0.4 s⁻¹; in test [5] it was 191 ± 8 s⁻¹. Moreover, the Km in test [1] (setting [6]) came out at 6.9 mM; in test [2] (setting [6]), 10.8 mM; in test [3] (setting [6]) it was 2.5 ± 0.5 mM; in test [5] (pH 9.5, 2 mM Mn2+) it was 5.3 ± 0.8 mM. The “arginase activity, % of the enzymatic activity of wild-type arginase” value in test [3] (substrate arginine) came out at 3.5%. Besides, the “decrease of catalytic constant (kcat) compared with wild-type enzyme” value in test [3] (substrate arginine) is “approximately 30 times”. Further, the “Inhibition type” value in test [4] (substrate agmatine) was “linear competitive inhibition”. In test [4] (substrate agmatine), this compound displayed a Kis of 9 ± 3 mM.

Values taken from article PMC9224512, “New Insights into the Determinants of Specificity in Human Type I Arginase: Generation of a Mutant That Is Only Active with Agmatine as Substrate” (International Journal of Molecular Sciences, 2022).
